Reference: patent US6855730B2, “3-methylidenyl-2-indolinone modulators of protein kinase” (Sugen, Inc., priority 1998, dated 2005)

What was measured:
PDGFR-β = molecular target: T1, PDGFR-β (Homo sapiens, UniProt P09619); experiment: Biochemical PDGFR assay (ELISA, PDGFR-β expressing NIH 3T3 cell lysate); conditions: read-out: bio PDGF IC50
T1 construct: host or cells: NIH 3T3
Description: This assay measures the in vitro kinase activity of PDGFR using ELISA.
Unless otherwise noted, the preparation of working solution-of the following reagents is the same as that for the Biochemical EGFR assay, above. • 1. […] 28D4C10 monoclonal anti-PDGFR antibody (Biochemistry Lab, SUGEN, Inc.). • 3. PBS (Dulbecco's Phosphate-Buffered Saline, Gibco Catalog No. 450-1300EB) • 4. TBST Buffer. • 5. Blocking Buffer. • 6. PDGFR-β expressing NIH 3T3 cell lysate (Screening Lab, SUGEN, Inc.). • 7. TBS Buffer. • 8. TBS+10% DMSO. • 9. […] MnCl2. • 11. Kinase buffer phosphorylation mix.
• 12. NUNC 96-well V bottom polypropylene plates (Applied Scientific Cat. No. AS-72092). • 13. Ethylenediaminetetraacetic acid (EDTA). • 14. Rabbit polyclonal anti-phosphotyrosine serum (Biochemistry Lab, SUGEN, Inc.). • 15. Goat anti-rabbit IgG peroxidase conjugate (Biosource Cat. No. ALI0404). • 16. 2,2′-azino-bis(3-ethylbenzthiazoline-6-sulfonic acid) (ABTS, Sigma Cat. No. A-1888). • 17. Hydrogen peroxide 30% solution (Fisher Cat. No. H325). • 18. ABTS/H2O2. • 19. 0.2 M HCl.
Procedure • 1. Coat Corning 96 well ELISA plates with 0.5 μg 28D4C10 in 100 μl PBS per well, store overnight at 4° C. • 2. Remove unbound 28D4C10 from wells by inverting plate to remove liquid. Wash 1× with dH2O. Pat the plate on a paper towel to remove excess liquid. • 3. Add 150 μl of Blocking Buffer to each well. Incubate for 30 min. at room temperature with shaking. • 4. Wash plate 3× with deionized water, then once with TBST. Pat plate on a paper towel to remove excess liquid and bubbles. • 5. Dilute lysate in HNTG (10 μg lysate/100 μl HNTG) • 6. Add 100 μl of diluted lysate to each well. Shake at room temperature for 60 min. • 7. Wash plates as described in 4, above. • 8. Add 80 μl working kinase buffer mix to ELISA plate containing captured PDGFR. • 9. Dilute test compound 1:10 in TBS in 96-well polypropylene plates (i.e., 10 μl compound+90 μl TBS). • 10. Add 10 μl diluted test compound to ELISA plate. […] Incubate for 30 minutes while shaking at room temperature. • 12. Add 10 μl ATP directly to all wells except negative control well (final well volume should be approximately 100 μl with 20 μM ATP in each well.) Incubate 30 minutes while shaking. • 13. After 30 minutes, stop reaction by adding 10 μl of 200 mM EDTA (pH 8.0) to each well. • 14. Wash 4× with deionized water, twice with TBST. • 15. Add 100 μl anti-phosphotyrosine (1:3000 dilution in TBST) per well. Incubate 30-45 min. at room temperature, with shaking. • 16. Wash as described in 4, above. • 17. Add 100 μl Biosource Goat anti-rabbit IgG peroxidase conjugate (1:2000 dilution in TBST) to each well. Incubate 30 min. at room temperature, with shaking. • 18. Wash as described in 4, above. • 19. Add 100 μl of ABTS/H2O2 solution to each well. • 20. Incubate 10 to 30 minutes with shaking. Remove any bubbles. • 21. If necessary stop reaction with the addition of 100 μl 0.2 M HCl per well. • 22. Read assay on Dynatech MR7000 ELISA reader: test filter: 410 nM, reference filter: 630 nM.

EGFR = EGFR (Homo sapiens, UniProt P00533); experiment: Biochemical EGFR assay (ELISA, A431 cell lysate); set-up: A431 cell lysate (Screening Lab, SUGEN, Inc.); host or cells: A431; conditions: read-out: bio EGFr IC50
Chain of EGFR (P00533 25-1210): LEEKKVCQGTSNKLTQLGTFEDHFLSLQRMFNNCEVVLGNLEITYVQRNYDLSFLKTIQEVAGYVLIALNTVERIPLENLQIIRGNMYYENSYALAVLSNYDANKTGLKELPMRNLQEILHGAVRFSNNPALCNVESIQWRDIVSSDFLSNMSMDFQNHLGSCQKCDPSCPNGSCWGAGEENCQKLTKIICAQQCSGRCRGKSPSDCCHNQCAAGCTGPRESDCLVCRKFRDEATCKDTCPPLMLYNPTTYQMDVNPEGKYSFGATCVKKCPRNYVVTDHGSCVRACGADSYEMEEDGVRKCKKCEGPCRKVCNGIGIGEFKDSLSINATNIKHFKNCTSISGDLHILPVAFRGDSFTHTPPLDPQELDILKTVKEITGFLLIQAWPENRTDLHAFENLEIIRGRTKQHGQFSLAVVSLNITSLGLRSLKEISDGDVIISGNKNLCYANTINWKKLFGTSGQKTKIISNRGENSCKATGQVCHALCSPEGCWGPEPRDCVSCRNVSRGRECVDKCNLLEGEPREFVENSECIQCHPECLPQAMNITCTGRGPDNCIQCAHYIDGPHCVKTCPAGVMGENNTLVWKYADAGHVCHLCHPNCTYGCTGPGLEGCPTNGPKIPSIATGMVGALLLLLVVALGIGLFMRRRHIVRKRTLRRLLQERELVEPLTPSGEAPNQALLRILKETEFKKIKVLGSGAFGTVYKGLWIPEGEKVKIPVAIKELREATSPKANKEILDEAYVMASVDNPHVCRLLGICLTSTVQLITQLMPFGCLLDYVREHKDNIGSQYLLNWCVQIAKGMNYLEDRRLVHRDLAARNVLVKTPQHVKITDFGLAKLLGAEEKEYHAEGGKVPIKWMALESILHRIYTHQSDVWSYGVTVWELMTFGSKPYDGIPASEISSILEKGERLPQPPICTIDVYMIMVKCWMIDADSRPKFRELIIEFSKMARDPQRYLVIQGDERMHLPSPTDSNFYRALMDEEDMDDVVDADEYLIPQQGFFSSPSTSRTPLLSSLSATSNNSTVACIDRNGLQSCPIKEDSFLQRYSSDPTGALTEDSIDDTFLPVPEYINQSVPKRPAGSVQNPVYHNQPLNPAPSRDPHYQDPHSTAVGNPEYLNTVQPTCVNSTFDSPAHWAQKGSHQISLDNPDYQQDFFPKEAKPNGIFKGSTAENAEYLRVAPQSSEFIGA
Experimental: This assay measures the in vitro kinase activity of EGFR using ELISA.
Materials and Reagents • 1. […] SUMO1 monoclonal anti-EGFR antibody (Biochemistry Lab, SUGEN, Inc.). • 3. PBS (Dulbecco's Phosphate-Buffered Saline, Gibco Catalog No. 450-1300EB). • 4. TBST Buffer
• 6. A431 cell lysate (Screening Lab, SUGEN, Inc.) • 7. TBS Buffer:
Prepare a 1.0 mM solution in dH2O. This reagent should be made up immediately prior to use and kept on ice. • 10. MnCl2.
Prepare a 1.0 M stock solution in dH2O. • 11. ATP/MnCl2 phosphorylation mix
This reagent should be prepared immediately before use and kept on ice. • 12. NUNC 96-well V bottom polypropylene plates (Applied Scientific Cat. No. AS-72092). • 13. Ethylenediaminetetraacetic acid (EDTA)
Prepare 200 mM working solution in dH2O. Adjust to pH 8.0 with 10 N NaOH. • 14. Rabbit polyclonal anti-phosphotyrosine serum (Biochemistry Lab, SUGEN, Inc.) • 15. Goat anti-rabbit IgG peroxidase conjugate (Biosource Cat. No. ALI0404) • 16. ABTS (2,2′-azino-bis(3-ethylbenzthiazoline-6-sulfonic acid), Sigma Cat. No. A-1888).
Mix first two ingredients in about 900 ml dH2O, adjust pH to 4.0 with phosphoric acid. Add ABTS, cover, let sit about 0.5 hr., filter. The solution should be kept in the dark at 4° C. until ready to use. • 17. Hydrogen peroxide 30% solution (Fisher Cat. No. H325) • 18. ABTS/H2O2 • Mix 15 ml ABTS solution and 2.0 μl H2O2. Prepare 5 minutes before use. • 19. 0.2 M HCl
Procedure • 1. Coat Corning 96 well ELISA plates with 0.5 μg SUMO1 in 100 μl PBS per well, store overnight at 4° C. • 2. Remove unbound SUMO1 from wells by inverting plate to remove liquid., Wash 1× with dH2O. Pat the plate on a paper towel to remove excess liquid. • 3. Add 150 μl of Blocking Buffer to each well. Incubate for 30 min. at room temperature with shaking. • 4. Wash plate 3× with deionized water, then once with TBST. Pat plate on a paper towel to remove excess liquid and bubbles. • 5. Dilute lysate in PBS (7 μg lysate/100 μl PBS). • 6. Add 100 μl of diluted lysate to each well. Shake at room temperature for 60 min. • 7. Wash plates as described in 4, above. • 8. Add 120 μl TBS to ELISA plate containing captured EGFR. • 9. Dilute test compound 1:10 in TBS in 96-well polypropylene plates (i.e. 10 μl compound+90 μl TBS). • 10. Add 13.5 μl diluted test compound to ELISA plate. […] Incubate for 30 minutes while shaking at room temperature. • 12. […] After 5 minutes, stop reaction by adding 16.5 μl of 200 mM EDTA (pH 8.0) to each well, shaking continuously. After the EDTA has been added, shake for 1 min. • 14. Wash 4× with deionized water, twice with TBST. • 15. Add 100 μl anti-phosphotyrosine (1:3000 dilution in TBST) per well. Incubate 30-45 min. at room temperature, with shaking. • 16. Wash as described in 4, above. • 17. Add 100 μl Biosource Goat anti-rabbit IgG peroxidase conjugate (1:2000 dilution in TBST) to each well. Incubate 30 min. at room temperature, with shaking. • 18. Wash as described in 4, above. • 19. Add 100 μl of ABTS/H2O2 solution to each well. • 20. Incubate 5 to 10 minutes with shaking. Remove any bubbles. • 21. If necessary stop reaction with the addition of 100 μl 1 0.2 M HCl per well. • 22. Read assay on Dynatech MR7000 ELISA reader. Test Filter: 410 nM Reference Filter: 630 Nm.

T1 sequence (P09619 33-1106): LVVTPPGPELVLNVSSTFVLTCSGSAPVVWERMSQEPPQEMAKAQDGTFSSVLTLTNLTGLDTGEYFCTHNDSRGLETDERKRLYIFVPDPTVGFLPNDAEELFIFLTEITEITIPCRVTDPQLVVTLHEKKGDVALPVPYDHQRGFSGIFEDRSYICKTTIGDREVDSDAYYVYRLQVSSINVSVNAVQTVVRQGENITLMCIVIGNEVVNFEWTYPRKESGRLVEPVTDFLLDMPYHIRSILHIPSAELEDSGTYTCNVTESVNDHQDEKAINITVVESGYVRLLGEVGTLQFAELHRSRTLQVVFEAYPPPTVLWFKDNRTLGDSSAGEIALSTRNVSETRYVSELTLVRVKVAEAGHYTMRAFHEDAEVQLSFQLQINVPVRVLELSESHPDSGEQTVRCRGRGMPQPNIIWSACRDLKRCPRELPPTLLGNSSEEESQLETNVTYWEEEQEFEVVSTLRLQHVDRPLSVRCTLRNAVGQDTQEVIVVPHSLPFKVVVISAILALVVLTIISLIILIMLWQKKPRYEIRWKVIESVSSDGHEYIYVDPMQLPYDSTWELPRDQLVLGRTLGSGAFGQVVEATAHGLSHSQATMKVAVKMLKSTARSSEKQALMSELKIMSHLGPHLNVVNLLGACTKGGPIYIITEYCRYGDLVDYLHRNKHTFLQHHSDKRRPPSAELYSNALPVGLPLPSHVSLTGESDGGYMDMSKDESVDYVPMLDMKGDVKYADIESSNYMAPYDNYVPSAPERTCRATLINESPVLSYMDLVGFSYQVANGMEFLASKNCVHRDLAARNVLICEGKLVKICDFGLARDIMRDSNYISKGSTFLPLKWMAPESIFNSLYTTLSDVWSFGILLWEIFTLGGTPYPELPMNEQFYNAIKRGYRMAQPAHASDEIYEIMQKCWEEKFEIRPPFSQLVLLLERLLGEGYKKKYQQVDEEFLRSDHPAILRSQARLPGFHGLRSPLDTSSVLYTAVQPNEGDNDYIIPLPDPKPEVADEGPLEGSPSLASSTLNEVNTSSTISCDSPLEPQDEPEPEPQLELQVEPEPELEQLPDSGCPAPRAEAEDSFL

IC50 (PDGFR-β) [µM] | IC50 (EGFR) [µM] | SMILES
84.6 | > 100 | O=C(O)CCc1c(C=C2C(=O)Nc3cc(N4CCOCC4)ccc32)[nH]c2c1CCCC2 [Example 209, 3-[2-(6-Morpholin-4-yl-2-oxo-1,2-dihydroindol-3-ylidenemethyl)-4,5,6,7-tetrahydro-1H-indol-3-yl]-propionic acid]
0.5 | 0.19 | CCOC(=O)c1c(C)[nH]c(/C=C2\C(=O)Nc3cccc(CCO)c32)c1CCCN(C)C [Example 135, 4-(3-Dimethylaminopropyl)-5-[4-(2-hydroxyethyl)-2-oxo-1,2-dihydroindol-3-ylidenemethyl]-2-methyl-1H-pyrrole-3-carboxylic acid ethyl ester]

Second part, the molecule before the results:

SMILES | IC50 (PDGFR-β) [µM] | IC50 (EGFR) [µM]
CCOC(=O)c1c(C)[nH]c(/C=C2\C(=O)Nc3ccc(C(=O)O)cc32)c1CCCN1CCCC1 [Example 128, 3-[4-Ethoxycarbonyl-5-methyl-3-(3-pyrrolidin-1-ylpropyl)-1H-pyrrol-2-ylmethylene]-2oxo-2,3-dihydro-1H-indole-5-carboxylic acid] | 17.1 | 
CCOC(=O)c1c(C)[nH]c(/C=C2\C(=O)Nc3ccc(OC)cc32)c1CCCN1CCCC1 [Example 127, 5-(5-Methoxy-2-oxo-1,2-dihydroindol-3-ylidenemethyl)-2-methyl-4-(3-pyrrolidin-1-ylpropyl)-1H-pyrrole-3-carboxylic acid ethyl ester] | 0.96 | 
CCOC(=O)c1c(C)[nH]c(/C=C2\C(=O)Nc3ccc(C(=O)O)cc32)c1CCCN(C)C [Example 134, 3-[3-(3-Dimethylaminopropyl)-4-ethoxycarbonyl-5-methyl-1H-pyrrol-2-ylmethylene]-2-oxo-2,3-dihydro-1H-indole-5-carboxylic acid] | 4.88 | 
CCOC(=O)c1c(C)[nH]c(/C=C2\C(=O)Nc3ccc(C(=O)O)cc32)c1CCCN1CCN(C)CC1 [Compound 129, 3-{4-Ethoxycarbonyl-5-methyl-3-(3-(4-methyl-piperazin-1-yl)-propyl]-1H-pyrrol-2-ylmethylene)-2-oxo-2,3-dihydro-1H-indole-5-carboxylic acid] | 31.7 | 
CCOC(=O)c1c(C)[nH]c(/C=C2\C(=O)Nc3ccc(C(=O)O)cc32)c1CCCN1CCOCC1 [Example 125, 3-[4-Ethoxycarbonyl-5-methyl-3-(3-morpholin-4-ylpropyl)-1H-pyrrol-2-ylmethylene]-2-oxo-2,3-dihydro-1H-indole-5-carboxylic acid] | 5.73 | 
